Test results published in patent US20070154449A1, “TIGHT JUNCTION MODULATING PEPTIDES FOR ENHANCED MUCOSAL DELIVERY OF THERAPEUTIC COMPOUNDS” (Nastech Pharmaceutical Company Inc., priority 2005, published 2007).

Columns and labels:
[1] = system: human-derived tracheal/bronchial epithelial cells (EpiAirway™ Tissue model system); test: FITC-Dextran (FD3) permeation assay, EpiAirway tissue model; type: cell-based; settings: 25 μM peptide, 1 h at 37° C.
Procedure: A FITC labeled dextran with a molecular weight 3000 (FD3) was used to assess the efficacy of individual TJMP on epithelial cell monolayer permeation. The tissue insert plates were transferred to a 96-well receiver plate containing 200 μl of DPBS++ as basal media. The apical surface of each tissue culture insert was incubated with a 20 μl sample of a single test formulation (refer to Table 4 in Example 2 for details of test formulations) for one hour at 37° C. in the dark on a shaker (˜100 rpm). Following the 1 hour incubation period, underlying basal media samples were taken from each tissue culture insert and temporarily stored in the dark at room temperature until FD3 levels were quantified by fluorescence spectroscopy. For FD3 measurements, a 150 μl of basal media sample was transferred to a black, clear bottom 96-well plate. Fluorescence emission at 528/20 following excitation at 485/20 were measured using a FLx800 fluorescence plate reader from Biotek Instruments.
Permeation was calculated as: [formula] [formula] Formula terms for permeation defined: […]
(§1) Of the total 300 μl volume for each test formulation, only a 20 μl sample was applied to the human-derived tracheal/bronchial epithelial cells (EpiAirway™ Tissue model system) in order to assess the effect each test formulation had on TER, LDH and sample permeation.

[2] = Chemical stability of PN159 in solution (stability indicating HPLC); type: physicochemical; settings: for loss of native PN159: 25° C.
Procedure: The chemical stability of the PN159 was determined under therapeutically relevant storage conditions. A stability indicating HPLC method was employed. Solutions (50 mM) were stored at various pH (4.0, 7.3, and 9.0) and temperature (5° C., 25° C., 35° C., 40° C., and 50° C.) conditions. Samples at pH 4 contained 10 mM citrate buffer. Samples at pH 7.3 and 9.0 contained 10 mM phosphate buffer. […] For example, at 5° C. and pH 4.0 or pH 7.3, there was essentially 100% recovery of PN159 for six month storage. […] The pH range of 4.0 to 7.3 and the temperature range of refrigerated to ambient are most relevant for intranasal formulations.

[3] = system: in vitro epithelial tissue model; test: Cell viability (MTT assay), in vitro epithelial tissue model; settings: galantamine lactate 40 mg/ml and PN159 at all concentrations tested (25, 50, 100 μM)
[4] = system: human-derived tracheal/bronchial epithelial cells (EpiAirway™ Tissue model system); test: Transepithelial electrical resistance (TER), EpiAirway tissue model; type: cell-based
Procedure: EpiAirway™ culture membranes were received the day before the experiments started. They are shipped in phenol red-free and hydrocortisone-free Dulbecco's Modified Eagle's Medium (DMEM). The cells are ciliated and psudostratefied, grown to confluency on Millipore Multiscreen Caco-2 96-well assay system comprised of a polycarbonate filter system. Upon receipt, the insert system will be stored unopened at 4° C. and/or cultured in 250 μl basal media per well (phenol red-free and hydrocortisone-free Dulbecco's Modified Eagle's Medium (DMEM)) at 37° C./5% CO2 for 24 hours before use.
TER measurements were taken using the REMS Autosampler (World Precision Instruments, Sarasota, Fla.) with the electrode leads. The electrodes and a tissue culture blank insert will be equilibrated for at least 20 minutes in MatTek Air-100™ medium with the power off prior to checking calibration. The background resistance of the insert system has been established by multiple measurements of a blank insert plate and the same value was used for each test on the platform. Time zero TER (TER0) was measured before incubation of the inserts with the test formulation. The top electrode will be as adjusted so that it is close to, but not making contact with, the top surface of the insert membrane. Background resistance of the blank insert should be about 5-20 ohms. For each TER determination, 100 μl of MatTek Air-100™ medium was added to the insert and 250 μl in the basal well followed by placement in the Endohm chamber. All TER values are reported as a function of the surface area of the tissue. Resistance was expressed as both Ohms*cm^2 and percent original TER value.
TER values were calculated as: [formula] [formula] Formula terms for TER calculation defined: […]
A decrease in TER value relative to the control value indicates a decrease in cell membrane resistance and an increase in mucosal epithelial cell permeability.
as §1

[5] = system: human-derived tracheal/bronchial epithelial cells (EpiAirway™ Tissue model system); test: Cytotoxicity (LDH assay), EpiAirway tissue model; type: cell-based
Procedure: The amount of cell death was assayed by measuring the release of lactate dehydrogenase (LDH) from the cells into the apical medium using a CytoTox 96 Cytotoxicity Assay Kit (Promega Corp., Madison, Wis.). One percent Octylphenolpoly (ethyleneglycolether)×(Triton X-100™) diluted in phosphate buffered saline (PBS) causes 100% lysis in cultured cells and served herein as a positive control for the LDH assay. Following the one hour incubation period with a test formulation (refer to Table 4 in Example 2 for details of test formulations), the total liquid volume of each insert was brought to a final volume of 200 μl with culture medium. The apical medium was then mixed by pipetting four times with a multichannel pipette set to a 100 μl volume. After mixing, a 100 μl sample from the apical side of each insert was transferred to a new 96-well plate. The apical media samples were sealed with a plate sealer and stored at room temperature for same day analysis or stored overnight at 4° C. for analysis the next day. To measure LDH levels, 5 μl of the 100 μl apical media sample was diluted in 45 μl DPBS in a new 96-well plate. Fresh, cell-free culture medium will be used as a blank. Fifty microliters of substrate solution was added to each well and incubated for 30 minutes at room temperature away from direct light. Following the 30 minute incubation, 50 μl of stop solution was added to each well. Optical density (OD) was measured at 490 nm with a uQuant absorbance plate reader from Biotek Instruments. The measurement of LDH release into the apical media indicates relative cytotoxicity of the samples. Percent cytotoxicity for each test formulation was calculated by subtracting the measured absorbance of the PBS control (basal level of LDH release) from the measured absorbance of the individual test formulation and then dividing that value by the measured absorbance for the 1% Triton X-100™ positive control, multiplied by 100.
The formula used to calculate percent cytotoxicity is as follows: [formula] Osmolality
as §1

SMILES: CC(C)C[C@H](NC(=O)[C@H](C)NC(=O)[C@H](CCCCN)NC(=O)[C@H](CC(C)C)NC(=O)[C@H](C)NC(=O)[C@H](CC(C)C)NC(=O)[C@H](CCCCN)NC(=O)[C@H](CC(C)C)NC(=O)[C@H](C)NC(=O)[C@H](CC(C)C)NC(=O)[C@@H](N)CCCCN)C(=O)N[C@@H](CCCCN)C(=O)N[C@@H](C)C(=O)N[C@@H](C)C(=O)N[C@@H](CC(C)C)C(=O)N[C@@H](CCCCN)C(=O)N[C@@H](CC(C)C)C(=O)N[C@@H](C)C(N)=O [PN159]
- % FD3 Permeation [1]: 8%
- loss of native PN159 ([2]; pH 4, after six months): 7%
- loss of native PN159 ([2]; pH 7, after six months): 26%
- chemical stability of PN159 ([2]; pH 9 and/or elevated temperature, e.g., 40 to 50° C.): rapid deterioration
- Cell viability (MTT) [3]: > 80%
- % T0 TER ([4]; 25 μM peptide, pH 7, 20 μl applied): 7%
- TER in the presence of galantamine ([4]; 25, 50, 100 μM PN159 with 40 mg/ml galantamine lactate, pH 5.0): reduced TER
- LDH ([5]; 25 μM peptide, 1 h incubation, % of 1% Triton X-100 control): 31%
- cytotoxicity as measured by LDH ([5]; PN159 (25, 50, 100 μM) with galantamine lactate 40 mg/ml): low
